{"source": "patent US20240368106A1", "about": "“HYDROXY AND ALKOXY COUMARINS AS MODULATORS OF POLRMT” (Pretzel Therapeutics, Inc., priority 2021, published 2024)"}
{"biological_target": "POLRMT (Homo sapiens (Human), UniProt O00411)", "sequence (O00411 42-1230)": "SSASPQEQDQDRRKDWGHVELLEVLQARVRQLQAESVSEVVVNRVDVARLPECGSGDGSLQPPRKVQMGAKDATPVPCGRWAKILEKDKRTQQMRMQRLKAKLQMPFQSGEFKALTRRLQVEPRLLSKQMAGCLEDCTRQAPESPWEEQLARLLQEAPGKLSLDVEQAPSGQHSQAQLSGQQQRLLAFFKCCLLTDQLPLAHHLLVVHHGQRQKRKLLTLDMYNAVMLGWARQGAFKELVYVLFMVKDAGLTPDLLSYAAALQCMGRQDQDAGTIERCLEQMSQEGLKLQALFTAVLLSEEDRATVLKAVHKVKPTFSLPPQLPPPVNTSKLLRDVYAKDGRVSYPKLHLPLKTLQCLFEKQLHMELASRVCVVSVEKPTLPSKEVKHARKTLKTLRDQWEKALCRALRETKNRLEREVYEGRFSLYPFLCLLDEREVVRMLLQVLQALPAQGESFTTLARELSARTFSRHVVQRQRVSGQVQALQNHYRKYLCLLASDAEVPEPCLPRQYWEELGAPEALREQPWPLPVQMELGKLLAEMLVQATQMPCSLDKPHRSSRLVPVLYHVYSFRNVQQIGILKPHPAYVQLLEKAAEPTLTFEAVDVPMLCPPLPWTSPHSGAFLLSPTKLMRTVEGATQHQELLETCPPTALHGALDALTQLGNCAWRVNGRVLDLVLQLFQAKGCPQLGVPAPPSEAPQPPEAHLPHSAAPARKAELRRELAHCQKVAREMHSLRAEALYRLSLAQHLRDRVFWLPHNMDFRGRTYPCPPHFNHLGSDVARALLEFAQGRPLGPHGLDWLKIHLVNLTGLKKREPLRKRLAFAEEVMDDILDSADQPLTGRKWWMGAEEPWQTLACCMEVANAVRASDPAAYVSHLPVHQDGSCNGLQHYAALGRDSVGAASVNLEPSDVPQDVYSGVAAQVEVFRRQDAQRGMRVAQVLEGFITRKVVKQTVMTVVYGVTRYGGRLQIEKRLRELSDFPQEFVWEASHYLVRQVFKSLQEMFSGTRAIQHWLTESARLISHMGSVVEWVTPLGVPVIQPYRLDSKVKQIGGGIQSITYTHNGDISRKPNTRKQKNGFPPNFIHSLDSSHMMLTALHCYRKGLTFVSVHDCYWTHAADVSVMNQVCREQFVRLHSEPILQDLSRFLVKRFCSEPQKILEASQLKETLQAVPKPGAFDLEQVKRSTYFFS", "assay": "homogeneous TR-FRET assay of mitochondrial transcription (inhibition of POLRMT)", "assay_type": "biochemical", "settings": "7.5 nM POLRMT, 15 nM TFB2M, 30 nM TFAM, 0.5 nM DNA template, 500 μM NTPs, 37° C., 60 minutes", "protocol": "The inhibitory activity of the compounds of the present invention against POLRMT were determined by assays based on Bergbrede, T., et al., “An adaptable high-throughput technology enabling the identification of specific transcription modulators,” SLAC Discov., 22, 378-386 (2017).\nThe ability of some compounds of the present invention to inhibit POLRMT were determined in a homogeneous TR-FRET Assay using high-throughput screening in a 384-well plate format. This method is used to monitor the activity of mitochondrial transcription through measurement of its product, a 407 bp long RNA transcript. Detection of the product is facilitated by hybridization of two DNA-oligonucleotide probes to specific and adjacent sequences within the RNA product sequence. Upon annealing of the probes, two fluorophores are coupled directly to an acceptor nucleotide probe (ATT0647, 5′), or introduced via a coupled streptavidin with a biotinylated donor nucleotide probe (Europium cryptate) that is brought into sufficient proximity to serve as a fluorescence-donor-acceptor pair. Thus, a FRET signal at 665 nm is generated upon excitation at 340 nm.\nProteins used as transcription factors (POLRMT: NP_005026.3, TFAM: NP_003192.1, TFB2M: NP_071761.1) are diluted from their stocks to working concentrations of 1 μM, 20 μM and 4 μM respectively, in a dilution buffer containing 20 mM Tris-HCl (pH 8.0), 200 mM NaCl, 10% (v/v) glycerol, 1 mM Dithiothreitol (DTT), 0.5 mM EDTA.\nDNA template is a pUC18 plasmid with the mitochondrial light strand promotor sequence (1-477) cloned between HindIII and BamHI sites. The DNA template is restriction linearized proximal to the promotor 3′-end (pUC-LSP). The reaction mixture (10 uL) containing 7.5 nM POLRMT, 15 nM of TFB2M, 30 nM of TFAM, 0.5 nM of DNA template and 500 μM nucleotide triphosphate mix (NTPs) in a reaction buffer (containing 10 mM Tris-HCl (pH 7.5), 10 mM MgCl2, 40 mM NaCl, 10 mM DTT, 0.005% (w/v) Tween-20, 160 units/ml Rnase inhibitor and 0.1 mg/mL BSA) are dispensed to compounds in microplates, using a Thermo Multidrop® dispenser, and incubated at 37° C. in a VWR INCU-Line incubator for 60 minutes after mixing. No nucleotide triphosphate mix is added to negative control samples. Microplates with compounds to be tested in the assay are prepared from 10 mM compound stocks in 100% DMSO, equal amounts of DMSO without any compound are added to positive control and negative control samples.\nDuring the incubation, a mix of the detection reagents is prepared in a buffer such that the enzymatic reaction is terminated due to chelating of Mg-ions and increased ionic strength, containing 50 mM Tris-HCl (pH 7.5), 700 mM NaCl, 20 mM EDTA, and 0.010% (w/v) Tween-20. Europium-streptavidin is pre-incubated with a 200-fold molar excess of a random sequence oligonucleotide to block unspecific binding of oligo, for two hours at ambient temperature in the dark. Afterwards, the blocked Europium-streptavidin is kept on ice until use.\nAt the end of the enzymatic reaction time, 5 μL detection oligo mix in the detection buffer is added, and assay plates are mixed and kept at ambient temperature for one hour, protected from light. The concentration of the Acceptor nucleotide oligo (e.g., ATTO647N-5′-[…]-3′) and Donor nucleotide oligo (e.g., bio-5′-AACACATCTCT(-bio)GCCAAACCCCA-bio-3′) in each assay well is 1 nM, and 3 nM, respectively.\nAfter incubation with oligo mix, 5 μL of pre-blocked Europium-streptavidin reagent is dispensed to each assay well, assay plates are again mixed and kept at ambient temperature for one hour, protected from light.\nThe generated signal is measured with BMG Pherastar microtiter plate reader with a TRF light unit, using excitation at 340 nm, an integration time of 200 μs, and a delay time of 100 μs, before detection at 620 nm and 665 nm. The ratio of donor- and acceptor-fluorescence is used as a measure of the generated transcript product (i.e. enzymatic activity).", "units": {"IC50": "nM"}}
{"smiles": "CCCOc1ccc2c(-c3csc(C)c3C)cc(=O)oc2c1", "note": "[Example 51, 4-(4,5-dimethylthiophen-3-yl)-7-propoxy-2H-chromen-2-one]", "IC50": 400}
{"smiles": "CCCOc1ccc2c(-c3ncccc3C)cc(=O)oc2c1", "note": "[Example 64, 4-(3-methylpyridin-2-yl)-7-propoxy-2H-chromen-2-one]", "IC50": 54000}
{"smiles": "COCC(Oc1ccc2c(-c3ccccc3Cl)cc(=O)oc2c1)C(=O)O", "note": "(centres unmarked) [Example 84, 2-((4-(2-chlorophenyl)-2-oxo-2H-chromen-7-yl)oxy)-3-methoxypropanoic acid]", "IC50": 2000}
{"smiles": "CC(=O)N1CC[C@@H](Oc2ccc3c(-c4ccccc4C)cc(=O)oc3c2)C1", "note": "[Example 62, (R)-7-((1-acetylpyrrolidin-3-yl)oxy)-4-(o-tolyl)-2H-chromen-2-one]", "IC50": 19000}
{"smiles": "COC[C@H](Oc1ccc2c(-c3ccccc3C)cc(=O)oc2c1)C(=O)O", "note": "[Example 104, (S)-3-methoxy-2-((2-oxo-4-(o-tolyl)-2H-chromen-7-yl)oxy)propanoic acid]", "IC50": 2000}
{"smiles": "CNC(=O)CCOc1ccc2c(-c3ccccc3C)cc(=O)oc2c1", "note": "[Example 12, N-methyl-3-((2-oxo-4-(o-tolyl)-2H-chromen-7-yl)oxy)propanamide]", "IC50": 7000}
{"smiles": "COCC(C)Oc1ccc2c(-c3ccccc3C)cc(=O)oc2c1", "note": "(racemic) [Example 25, 7-((1-methoxypropan-2-yl)oxy)-4-(o-tolyl)-2H-chromen-2-one]", "IC50": 300}
{"smiles": "COCC(Oc1ccc2c(-c3ccccc3C)cc(=O)oc2c1)C(=O)O", "note": "(centres unmarked) [Example 65, 3-methoxy-2-((2-oxo-4-(o-tolyl)-2H-chromen-7-yl)oxy)propanoic acid]", "IC50": 800}
{"smiles": "O=c1cc(-c2ccc(F)cc2Cl)c2ccc(O)cc2o1", "note": "[Example 13, 4-(2-chloro-4-fluorophenyl)-7-hydroxy-2H-chromen-2-one]", "IC50": 3000}
{"smiles": "Cc1ccccc1-c1cc(=O)oc2cc(OC(CO)C(=O)N(C)C)ccc12", "note": "(single isomer, unassigned) [Example 78, 3-hydroxy-N,N-dimethyl-2-[4-(o-tolyl)-2-oxo-2H-chromen-7-yl]oxy-propanamide]", "IC50": 500}
{"smiles": "CCC(COC)Oc1ccc2c(-c3ccccc3C)cc(=O)oc2c1", "note": "(single isomer, unassigned) [Example 46, 7-((1-methoxybutan-2-yl)oxy)-4-(o-tolyl)-2H-chromen-2-one]", "IC50": 300}
{"smiles": "Cc1cc(O)cc2oc(=O)cc(-c3ccc(F)cc3)c12", "note": "[Example 16, 4-(4-fluorophenyl)-7-hydroxy-5-methyl-2H-chromen-2-one]", "IC50": "> 100000"}
{"smiles": "Cc1cccc(C)c1-c1cc(=O)oc2cc(OCC#N)ccc12", "note": "[Example 107, 2-((4-(2,6-dimethylphenyl)-2-oxo-2H-chromen-7-yl)oxy)acetonitrile]", "IC50": 30}
{"smiles": "COCC(C)Oc1cc(C)c2c(-c3ccccc3C)cc(=O)oc2c1", "note": "(single isomer, unassigned) [Example 60, 7-((1-methoxypropan-2-yl)oxy)-5-methyl-4-(o-tolyl)-2H-chromen-2-one]", "IC50": 500}
{"smiles": "CNC(=O)[C@H](COC)Oc1ccc2c(-c3ccccc3C)cc(=O)oc2c1", "note": "[Example 69, (S)-3-methoxy-N-methyl-2-((2-oxo-4-(o-tolyl)-2H-chromen-7-yl)oxy)propenamide]", "IC50": 17000}
{"smiles": "COCC(C)Oc1cc(C)c2c(-c3ccccc3C)cc(=O)oc2c1", "note": "(single isomer, unassigned) [Example 59, 7-((1-methoxypropan-2-yl)oxy)-5-methyl-4-(o-tolyl)-2H-chromen-2-one]", "IC50": 600}
{"smiles": "O=C([C@@H](CO)Oc1ccc2c(-c3ccc(F)cc3Cl)cc(=O)oc2c1)N1CCCCC1", "note": "[Example 15, (R)-4-(2-chloro-4-fluorophenyl)-7-((3-hydroxy-1-oxo-1-(piperidin-1-yl)propan-2-yl)oxy)-2H-chromen-2-one]", "IC50": 400}
{"smiles": "Cc1ccccc1-c1cc(=O)oc2cc(OC(CO)C(=O)O)ccc12", "note": "(centres unmarked) [Example 102, 3-hydroxy-2-((2-oxo-4-(o-tolyl)-2H-chromen-7-yl)oxy)propanoic acid]", "IC50": 1000}
{"smiles": "Cc1ccccc1-c1cc(=O)oc2cc(OCCN(C)C)ccc12", "note": "[Example 08, 7-(2-(dimethylamino)ethoxy)-4-(o-tolyl)-2H-chromen-2-one]", "IC50": 94000}
{"smiles": "Cc1ccccc1-c1cc(=O)oc2cc(OC3CCOCC3)ccc12", "note": "[Example 28, 7-((tetrahydro-2H-pyran-4-yl)oxy)-4-(o-tolyl)-2H-chromen-2-one]", "IC50": 500}
{"smiles": "Cc1ccccc1-c1cc(=O)oc2cc(OC3CCCOC3)ccc12", "note": "(single isomer, unassigned) [Example 49, 7-((tetrahydro-2H-pyran-3-yl)oxy)-4-(o-tolyl)-2H-chromen-2-one]", "IC50": 1000}
{"smiles": "COC(=O)C(COC(F)(F)F)Oc1ccc2c(-c3ccccc3C)cc(=O)oc2c1", "note": "(centres unmarked) [Example 105, methyl 2-((2-oxo-4-(o-tolyl)-2H-chromen-7-yl)oxy)-3-(trifluoromethoxy)propanoate]", "IC50": 40}
{"smiles": "CC(=O)N1CCCC(Oc2ccc3c(-c4ccc(F)cc4Cl)cc(=O)oc3c2)C1", "note": "(centres unmarked) [Example 57, 7-((1-acetylpiperidin-3-yl)oxy)-4-(2-chloro-4-fluorophenyl)-2H-chromen-2-one]", "IC50": 4000}
{"smiles": "CCCOc1ccc2c(-c3cccc4c3OCCO4)cc(=O)oc2c1", "note": "[Example 36, 4-(2,3-dihydrobenzo[b][1,4]dioxin-5-yl)-7-propoxy-2H-chromen-2-one]", "IC50": 50000}
{"smiles": "COCC(Oc1ccc2c(-c3ccccc3C)cc(=O)oc2c1)C(=O)N1CCC1", "note": "(single isomer, unassigned) [Example 89, 7-((1-(azetidin-1-yl)-3-methoxy-1-oxopropan-2-yl)oxy)-4-(o-tolyl)-2H-chromen-2-one]", "IC50": 200}
{"smiles": "CCNC(=O)C(COC)Oc1ccc2c(-c3ccccc3C)cc(=O)oc2c1", "note": "(single isomer, unassigned) [Example 80, N-ethyl-3-methoxy-2-((2-oxo-4-(o-tolyl)-2H-chromen-7-yl)oxy)propanamide]", "IC50": 15000}
{"smiles": "COCC(Oc1ccc2c(-c3ccccc3Cl)cc(=O)oc2c1)C(=O)N(C)C", "note": "(single isomer, unassigned) [Example 93, 2-((4-(2-chlorophenyl)-2-oxo-2H-chromen-7-yl)oxy)-3-methoxy-N,N-dimethylpropanamide]", "IC50": 18000}
{"smiles": "COCC(Oc1ccc2c(-c3ccccc3C)cc(=O)oc2c1)C(=O)NCC(F)(F)F", "note": "(single isomer, unassigned) [Example 82, 3-methoxy-2-((2-oxo-4-(o-tolyl)-2H-chromen-7-yl)oxy)-N-(2,2,2-trifluoroethyl)propanamide]", "IC50": 5000}
{"smiles": "Cc1ccccc1-c1cc(=O)oc2cc(OCCc3ccccc3)ccc12", "note": "[Example 07, 7-phenethoxy-4-(o-tolyl)-2H-chromen-2-one]", "IC50": 4000}
{"smiles": "COCCNC(=O)C(COC)Oc1ccc2c(-c3ccccc3C)cc(=O)oc2c1", "note": "(single isomer, unassigned) [Example 87, 3-methoxy-N-(2-methoxyethyl)-2-((2-oxo-4-(o-tolyl)-2H-chromen-7-yl)oxy)propanamide]", "IC50": 36000}
{"smiles": "Cc1cc(O[C@H](C)C(=O)N2CCCCC2)cc2oc(=O)cc(-c3ccc(F)cc3)c12", "note": "[Example 19, 4-(4-fluorophenyl)-5-methyl-7-[(1R)-1-methyl-2-oxo-2-(1-piperidyl)ethoxy]chromen-2-one]", "IC50": 500}
{"smiles": "Cc1ccccc1-c1cc(=O)oc2cc(O)ccc12", "note": "[Example 01, 7-hydroxy-4-(o-tolyl)-2H-chromen-2-one]", "IC50": 3000}
